{"source": "patent US20140142140A1", "about": "“PHARMACEUTICAL COMPOSITION FOR NEUROLOGICAL DISORDERS” (priority 2011, published 2014)", "key": {"[1]": {"test_system": "patient with spina bifida, ADHD, learning difficulties", "assay": "Case report, Spina Bifida (Example 11)", "format": "in vivo, human"}, "[2]": {"test_system": "patient with chronic neck pain", "assay": "Case report, Chronic Pain (Example 12)", "format": "in vivo, human", "procedure": "A further sublingual dose of phenyloin 1 mg was taken 15 mins after the first dose."}, "[3]": {"test_system": "patients with visual fatigue / impaired visual acuity", "assay": "Case reports, Visual fatigue / visual acuity (Example 5)", "format": "in vivo, human", "conditions": "for three-dimensional delicate work (visual acuity and depth perception): Patient 5d", "excerpt": "Adult with a history of ADHD stabilised on a combination of a psychostimulant and sodium valproate.\nAdult diagnosed with ADHD and stable on treatment with psychostimulants. […] Previously always relied on glasses to read because of an astigmatism.\nAdult previously diagnosed with ADHD and no longer taking stimulant medication."}, "[4]": {"test_system": "patient with tardive dyskinsia", "assay": "Case report, Tardive Dyskinesia (Example 10)", "format": "in vivo, human", "conditions": "Patient 10A; test dose of 1 mg", "excerpt": "Patient 10A was an elderly person with a history of post-dramatic stress disorder treated with long-term antipsychotic medication."}, "[5]": {"test_system": "patients with bipolar mood disorder", "assay": "Case report, Bipolar (Example 8)", "format": "in vivo, human"}, "patients with PTSD": {"test_system": "patients with PTSD", "assay": "Case reports, PTSD (Example 9)", "format": "in vivo, human", "excerpt": "Patient 9A: Two year history of PTSD & Major Depression, unable to work for nine months. […] Eight months specialist psychiatric treatment including specific PTSD therapy program. […] No history of premorbid ASD or ADHD, possible mild reading difficulties.\nPatient 9B: 40 year history of severe PTSD associated with severe re-experiencing phenomena, absence of any family relationships and social withdrawal, anger outbursts, chronic sleep disturbance exaggerated startle reflex and hypervigilance. Comorbid conditions including chronic major depression, alcohol dependence. Attended regular psychiatric treatment for in excess of five years. Treated with a combination of regular outpatient psychotherapy and pharmacotherapy including antidepressants and antipsychotic medications.\nPatient 9C: history of PTSD associated with chronic impairment in previous alcohol dependence. Previous psychiatric admissions as a consequence of condition. Long-term antidepressant therapy together with intermittent use of antipsychotic medication."}, "[6]": {"test_system": "patients with Alzheimer's type dementia", "assay": "Case reports, Mild Cognitive Impairment (MCI) and Dementia (Example 1)", "format": "in vivo, human", "excerpt": "Patient 1A was an elderly person with history of impairment of cognitive function. Presumptive diagnosis of possible dementia of Alzheimers type.\nPatient 1B was an elderly retired person with a 7 year history of Alzheimer's type dementia treated with the cholinesterase inhibitor Donepezil. […] Their cognitive function has gradually deteriorated since this time. […] Their reading was more fluent being better able to follow the meaning of the text. There was also improvement in their Stroop Test particularly in part three, the more cognitively demanding where their accuracy improved from 50 to 90%."}, "[7]": {"test_system": "mood stabilisation or epileptic symptoms or events", "conditions": "per day; cited from earlier work"}, "[8]": {"test_system": "patients with schizophrenia", "assay": "Case reports, Schizophrenia (Example 7)", "format": "in vivo, human", "excerpt": "Patient 7A: Adult, initially diagnosed with schizophrenia in adolescence. Long history of impairment with predominant paranoid delusions controlled with antipsychotic medication although still experiencing significant relapses despite consistent adherence to the pharmacotherapy regime. Significant social impairment, unable to sustain employment and requires support. Prominent negative symptoms and social deficits, unable to sustain eye contact when speaking. Speech slow, effortful and fatiguing. […] Prosody and rate of speech both improved. Patient 7B: Adult initially diagnosed with schizophrenia during adolescence, following many years of prominent positive symptoms with severe behavioural disturbances and violence requiring periods of hospitalisation. Patient has never been able to sustain employment and requires significant social support to maintain functioning. Prominent thought disorder and general social disengagement. […] Able to sustain and enjoy social interaction in a sheltered workshop which had never occurred previously."}, "[9]": {"test_system": "patients with reading / learning difficulties", "assay": "Case reports, Reading Disorder (Example 2)", "format": "in vivo, human", "excerpt": "They noticed greater contrast when reading. This had reduced their dependency upon spectacles which they had relied on for many years. […] Patient described an unexpected improvement in the clarity and contrast of the words and letters, further commenting on the improvement in their ability to both see and comprehend the words simultaneously. Patient also described a reduction in the instability or movement of the words on the page which had always been experienced when reading. Also further commented on the subjective improvement in vision, with an apparent improved depth perception. […] Patient noticed greater contrast in the text when reading and this had reduced their dependency upon spectacles which they had relied on for many years. […] The patient has been able to sustain employment with considerable effort. Reading had always been effortful and largely unrewarding. Patient had described difficulties tracking along the text being frequently distracted by the lines above and below becoming lost on the page as well as having little recall or comprehension of what they had read."}, "[10]": {"test_system": "individuals with symptoms of ADHD"}}}
{"smiles": "O=C1NC(=O)C(c2ccccc2)(c2ccccc2)N1", "note": "[phenyloin, 5,5-diphenylhydantoin]", "values": [{"measurement": "duration of sustained improvements", "setting": "[1]; Patient 11A", "result": "over 12 months"}, {"measurement": "social interaction, conversation, reading aloud, fine motor control and handwriting", "setting": "[1]; Patient 11A (on low dose methylphenidate), sublingual dose 1 mg", "result": "significant improvement"}, {"measurement": "dose associated with optimal response", "setting": "[1]; Patient 11A, daily in two divided doses", "result": 1.5, "unit": "mg"}, {"measurement": "efficacy after dose increase", "setting": "[1]; Patient 11A, dose increased to 2 mg", "result": "loss of efficacy"}, {"measurement": "freedom of movement without pain", "setting": "[2]; additional sublingual dose 1 mg on top of 3 mg modified release", "result": "further acute improvement in the freedom of movement without pain"}, {"measurement": "control of chronic pain on maintenance", "setting": "[2]; daily dose 3 mg modified release capsule", "result": "control of the chronic pain was maintained"}, {"measurement": "duration of relief", "setting": "[2]; sublingual 1 mg", "result": "approximately 10 min"}, {"measurement": "vision during relief", "setting": "[2]; sublingual 1 mg", "result": "enhancement in their vision"}, {"measurement": "intensity of the pain after dose", "setting": "[2]; sublingual 1 mg, from 10/10 (most severe) before dose", "result": "5/10"}, {"measurement": "invasive and distressing nature of cervical pain", "setting": "[2]; ultra low dose", "result": "reduced with unexpected efficacy and rapidity"}, {"measurement": "overall functioning", "setting": "[3]; Patient 5a, ADHD on psychostimulant and sodium valproate, 4 mg added", "result": "further improvement in their overall functioning"}, {"measurement": "visual fatigue", "setting": "[3]; Patient 5a, 4 mg added", "result": "visual fatigue no longer occurred"}, {"measurement": "function", "setting": "[3]; Patient 5b, ADHD on psychostimulants, 2 mg daily", "result": "significant improvement in function"}, {"measurement": "visual acuity", "setting": "[3]; Patient 5b, 2 mg daily", "result": "apparent improvement in their visual acuity"}, {"measurement": "visual acuity whilst reading", "setting": "[3]; Patient 5c, 1 mg", "result": "immediate and unexpected improvement in visual acuity"}, {"measurement": "judging distances when playing lawn bowls", "setting": "[3]; Patient 5e, low dose", "result": "improvement in their ability to accurately identify distances"}, {"measurement": "visual judgement when playing soccer", "setting": "[3]; Patient 5f, low dose", "result": "improvement in visual judgement"}, {"measurement": "three-dimensional delicate work (visual acuity and depth perception)", "setting": "[3]; 1 mg", "result": "most consistent improvement"}, {"measurement": "three-dimensional delicate work (visual acuity and depth perception)", "setting": "[3]; 2 mg", "result": "improved"}, {"measurement": "abnormal facial movements", "setting": "[4]", "result": "abnormal facial movements ceased"}, {"measurement": "function", "setting": "[5]; Patient 8A, bipolar mood disorder, compounded 2 mg capsule", "result": "significant improvement in function"}, {"measurement": "improvements noted", "setting": "[5]; Patient 8A, 2 mg capsule", "result": "enhanced organisation and planning • reduced effort required for social interaction • enhanced clarity of thought • a sense of being psychologically more normal"}, {"measurement": "clinical effect of a much higher dose", "setting": "[5]; patients with bipolar spectrum disorders, much higher dose", "result": "good effect"}, {"measurement": "executive functioning", "setting": "[5]; some patients with bipolar mood disorder, very low dose added", "result": "significant improvement in their executive functioning"}, {"measurement": "duration improvements maintained", "setting": "patients with PTSD; Patient 9A", "result": "over three months"}, {"measurement": "time to reported improvements", "setting": "patients with PTSD; Patient 9A, 2 mg daily", "result": "≤ 24", "unit": "h"}, {"measurement": "efficacy after dose change", "setting": "patients with PTSD; Patient 9A, dose reduced to 1 mg and increased to 4 mg", "result": "reduction in efficacy"}, {"measurement": "overall improvement described", "setting": "patients with PTSD; Patient 9B, low dose", "result": 50, "unit": "%"}, {"measurement": "most stable and efficacious dose", "setting": "patients with PTSD; Patient 9C", "result": 0.5, "unit": "mg daily"}, {"measurement": "stable improvements", "setting": "patients with PTSD; Patient 9C, 0.5 mg daily", "result": "reduction of intrusive and negative thoughts • Enhanced interpersonal communication • Reduced effort of reading • Enhanced quality of sleep"}, {"measurement": "adverse effects", "setting": "patients with PTSD; Patient 9C, 3 mg", "result": "became irritable and experienced word finding difficulties"}, {"measurement": "intrusive thoughts, mood stability and concentration", "setting": "patients with PTSD; Patient 9C, 3 mg", "result": "initial improved ability to dismiss and ignore distressing, intrusive thoughts"}, {"measurement": "functioning during complete withdrawal", "setting": "patients with PTSD; Patient 9C, periods of complete withdrawal", "result": "return to their pre-phenyloin functioning including a worsening of their symptoms of PTSD"}, {"measurement": "functional capacity and symptoms of PTSD", "setting": "patients with PTSD; patients with PTSD, Ultra low dose", "result": "significant improvements in functional capacity as well as a reduction in the symptoms of PTSD"}, {"measurement": "cognitive function, clinical response", "setting": "[6]; Patient 1A, possible dementia of Alzheimers type, 25 mg", "result": "some improvement but benefit was lost on continuation of this dose"}, {"measurement": "duration of sustained benefit", "setting": "[6]; Patient 1A, 3 mg daily", "result": "over 24 months"}, {"measurement": "cognitive function, clinical response", "setting": "[6]; Patient 1A, daily dose of 3 mg in divided doses orally", "result": "significant improvement"}, {"measurement": "cognitive function after withdrawal of medication", "setting": "[6]; Patient 1A, withdrawal after 25 mg", "result": "transient improvement followed by a return to pre-phenyloin functioning"}, {"measurement": "ability to read a standard text", "setting": "[6]; Patient 1B (treated with Donepezil), test dose 1 mg sublingual", "result": "significant improvement in their ability to read a standard text"}, {"measurement": "time to improvement in reading after dose", "setting": "[6]; Patient 1B, 1 mg sublingual", "result": "≤ 10", "unit": "min"}, {"measurement": "functioning the following day after single dose", "setting": "[6]; Patient 1B, 1 mg sublingual single dose", "result": "more able to initiate activities"}, {"measurement": "Stroop Test part three accuracy after dose", "setting": "[6]; Patient 1B, 1 mg sublingual, improved from 50", "result": 90, "unit": "%"}, {"measurement": "Minimum typical dose/day effective for mood stabilisation or treatment of epileptic symptoms or events", "setting": "[7]", "result": 200, "unit": "mg"}, {"measurement": "communication, prosody and rate of speech", "setting": "[8]; Patient 7A (on antipsychotic medication), 2 mg daily", "result": "significant improvement in ability to communicate with less effort"}, {"measurement": "speech and reading aloud a standard text", "setting": "[8]; Patient 7B, 1 mg sublingual", "result": "significant improvement in speech and ability to read aloud a standard text"}, {"measurement": "effects when withdrawn", "setting": "[8]; Patient 7B, phenyloin withdrawn", "result": "Positive effects abated"}, {"measurement": "visual acuity / contrast when reading", "setting": "[9]; Patient 2A, 1 mg daily", "result": "visual acuity had appeared to improve"}, {"measurement": "benefits at a higher dose", "setting": "[9]; Patient 2A", "result": "not sustained at a higher dose"}, {"measurement": "reading, pseudo word component of WAIT", "setting": "[9]; Patient 2B, 1 mg sub lingual dose", "result": "improved ability to read"}, {"measurement": "benefits at increased dose", "setting": "[9]; Patient 2B, dose increased to 50 mg", "result": "beneficial effects were lost"}, {"measurement": "visual acuity / contrast in the text when reading", "setting": "[9]; Patient 2C, 1 mg daily", "result": "visual acuity had appeared to improve"}, {"measurement": "benefits at a higher dose", "setting": "[9]; Patient 2C", "result": "not sustained at a higher dose"}, {"measurement": "ability to read", "setting": "[9]; Patient 2D, 0.5 mg dose", "result": "significant improvement in their ability to read with less effort"}, {"measurement": "duration of improvement on ceasing before deterioration", "setting": "[10]; Patient 3A", "result": "up to 7 days"}, {"measurement": "most efficacious dose", "setting": "[10]; Patient 3A", "result": 0.1, "unit": "mg daily"}, {"measurement": "ADHD symptoms, clinical response", "setting": "[10]; Patient 3A (on tricyclic antidepressant and dexamphetamine), 30 mg capsule", "result": "temporarily associated with improvement in clarity of thoughts and eye contact during conversation"}, {"measurement": "clinical response on reintroduction at a lower dose", "setting": "[10]; Patient 3A, lower dose", "result": "initial benefit that associated with rapid loss of efficacy"}, {"measurement": "functioning after withdrawal", "setting": "[10]; Patient 3A, phenyloin withdrawn", "result": "initial improvement then later worsening to the pre-phenyloin functioning"}, {"measurement": "side effects of higher doses", "setting": "[10]; in vivo", "result": "significant cognitive side effects"}, {"measurement": "efficacy of higher doses", "setting": "[10]; individuals with symptoms of ADHD, higher doses", "result": "ineffective"}, {"measurement": "symptoms of ADHD, clinical response", "setting": "[10]; individuals with symptoms of ADHD, ultra low doses", "result": "improvements were noted"}]}
